In assay [1] the target is T1, Aβ1-42 oligomers (Homo sapiens, UniProt P05067). The assay can be described thus: Fluorescence emission spectra: interaction of peptide with Aβ1-42 oligomers. It counts as binding. Set-up: purchased Life Technologies. The settings on record: for shift of emission on contact with Aβ oligomers: 1 μM Aβ oligomers; for emission maximum (λmax) with Aβ oligomers: 20 mM Hepes pH 7.4, 1 μM Aβ oligomers. From the text:
Interaction of Aromatic-cationic Peptides with Aβ1-42 Oligomers:
D-Arg-2′,6′-Dmt-Lys-Ald-NH2 ([ald]SS-31) is an aladan (ald) containing derivative of D-Arg-2′,6′-Dmt-Lys-Phe-NH2 (SS-31). See Birk et al., J Am Soc Nephrol. 24(8): 1250-1261 (2013). […] Thus, interaction between D-Arg-2′,6′-Dmt-Lys-Ald-NH2 ([ald]SS-31) and phospholipids causes an observable shift in the fluorescence spectra of the peptide. See Birk et al., J Am Soc Nephrol. 24(8): 1250-1261 (2013). […] The fluorophore aladan was used as a control. All experiments were conducted in 20 mM Hepes (pH 7.4) so as to replicate an environment with physiological pH.

Assay [2] has as its target T1, Aβ1-42 oligomers. The assay can be described thus: Turbidity (right-angle light scattering at 633 nm) of peptides with Aβ1-42 oligomers. Set-up: purchased Life Technologies. The settings on record: 40 μM Aβ, Hepes pH 7.4. On the procedure:
Turbidity Measurements of Aromatic-Cationic Peptides Complexed with Aβ1-42 Oligomers: The turbidity of solutions containing aromatic-cationic peptides and/or Aβ1-42 oligomers was measured via right-angle scattering at λ=633 nm (Hitachi F-4500 Fluorescent Spectrophotometer). All experiments were conducted in Hepes (pH 7.4) and scanned immediately.

For assay [3], the target named is T2, Aβ1-42-Cardiolipin-Cu^2+ complex (Homo sapiens, UniProt P05067).
T2 construct: purchased Life Technologies
T2 sequence (P05067 672-713 limits assumed, one chain of several): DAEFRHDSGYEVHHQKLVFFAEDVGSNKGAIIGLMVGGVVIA
The assay can be described thus: Aβ1-42-Cardiolipin-Cu2+ complex oxygenase activity (Amplex Red, no H2O2). It counts as biochemical. The settings on record: for increase in Aβ1-42-mediated oxygenase activity compared to the non-metal treated control: 10 μM metal salt incubated with cardiolipin and Aβ1-42 oligomers; for reduction in Aβ1-42-mediated oxygenase activity compared to untreated controls: 10 μM peptide, 30 μM CuCl2, 50 μM Amplex Red; for reduction in Aβ1-42-mediated oxygenase activity compared to untreated controls / inhibition of Aβ1-42-mediated oxygenase activity compared to untreated controls: 30 μM TLCL; for inhibition of Aβ1-42-mediated oxygenase activity compared to untreated controls: 100 μM peptide; for inhibition of Cu2+-dependent stimulation of Aβ1-42-mediated oxygenase activity, dose dependence: FIG. 4B, varying peptide concentrations. On the procedure: Oligomerization of Aβ1-42 Peptide: Aβ1-42 peptide was dissolved in 1.5 mL of a 1:1 water/acetonitrile solution. 500 μL aliquots were frozen in a methanol/dry ice cooling bath and then lyophilized. Once lyophilized, each aliquot was dissolved in 20 μL DMSO. The aliquots were then vortexed, centrifuged, and sonicated in a water bath at room temperature. 200 μL of filtered 1×PBS and 20 μL of 2% SDS were subsequently added. The Aβ1-42 peptide solution was incubated at 37° C. for 6 hours. 580 μL of water was subsequently added to the Aβ1-42 peptide solution, followed by a 16 hour incubation at 37° C. prior to being stored at 4° C.
Measurement of Aβ1-42-Cardiolipin-Cu^2+ Complex Oxygenase Activity:
Aβ1-42-Cardiolipin-Cu^2+ oxygenase activity was measured using the Amplex Red kit. Amplex Red is a dye that reacts with H2O2 in a 1:1 stoichiometric ratio to produce a highly fluorescent derivative called resorufin (λex/λem=570/585 nm). The presence of peroxidase activity in an Amplex reaction lacking H2O2 is an indicator of oxygenase activity resulting from the reaction between the Amplex Red reagent and oxygen in the solution. All experiments were conducted in the absence of H2O2. A measurement was immediately taken after the introduction of Amplex Red, the last reagent that was added to the reaction. The reaction was allowed to proceed for an additional 10 minutes. Continuous time course data over the 10-minute period was obtained using a microplate spectrofluorometer (Molecular Devices, Sunnyvale, Calif.).

The target in assay [4] is T1, Aβ1-42 oligomers. The assay can be described thus: Transmission electron microscopy of Aβ fibril formation.
The mark [5] stands for this setting: 800 nM Aβ oligomers, 30 μM CuCl2.

Where only a bound is given, the exact number is not on record here.

T1 sequence (P05067 672-713 limits assumed): as the sequence (P05067 672-713 limits assumed, one chain of several) above

As for `CN(C)c1ccc2cc(C(=O)CC(N)C(=O)O)ccc2c1` (stereo not drawn) [Ald, β-(6′-dimethylamino-2′-naphthoyl)alanine, reference compound], at Aβ1-42 oligomers [1], the “shift of emission on contact with Aβ oligomers” value is on record as “no shift”. For the same compound, the “emission maximum (λmax) with Aβ oligomers” value at Aβ1-42 oligomers [1] (1 μM, λex=360 nm) worked out at 535 nm. For the same compound, on Aβ1-42 oligomers [2], the “change in light scattering (turbidity) compared to Aβ1-42 oligomer control sample” value (“change in light scattering (turbidity)” for short) was “no change in turbidity” and the light scattering result is on record as “about 180 RFUs”.
For `O=[N+]([O-])[O-].O=[N+]([O-])[O-].[Cu+2]` [Cu(NO3)2, copper (II) nitrate hydrate, reference compound], the “increase in Aβ1-42-mediated oxygenase activity compared to the non-metal treated control” value in assay [3] is listed as 500%.
For the compound `[Cl][Cu][Cl]` [CuCl2, copper (II) chloride, reference compound], in assay [3], the “increase in Aβ1-42-mediated oxygenase activity compared to the non-metal treated control” value was > 500%.
Consider `CCCCCC=CCC=CCCCCCCCC(=O)OCC(COP(=O)(O)OCC(O)COP(=O)(O)OCC(COC(=O)CCCCCCCC=CCC=CCCCCC)OC(=O)CCCCCCCC=CCC=CCCCCC)OC(=O)CCCCCCCC=CCC=CCCCCC` (stereo not drawn) [TLCL, 1,1′,2,2′-tetralinoleoyl cardiolipin, reference compound], for which the “stimulation of Aβ1-42-mediated oxygenase activity in the presence of Cu2+ ions by phospholipid” value in assay [3] (setting [5]) is on record as “capable of stimulating”.
Consider “D-Arg-2′,6′-Dmt-Lys-Ald-NH2 [[ald]SS-31]”, for which the “reduction in Aβ1-42-mediated oxygenase activity compared to untreated controls” value in assay [3] (800 nM Aβ oligomers) is 90%. Besides, the “inhibition of Aβ1-42-mediated oxygenase activity compared to untreated controls” value in assay [3] (setting [5]) is on record as “complete inhibition”. Further, the “inhibition of Cu2+-dependent stimulation of Aβ1-42-mediated oxygenase activity, dose dependence” value in assay [3] is on record as “dose dependent”. Moreover, the “shift of emission on contact with Aβ oligomers” value on Aβ1-42 oligomers [1] is listed as “blue shift”. Also, the “emission maximum (λmax) with Aβ oligomers” value at Aβ1-42 oligomers [1] (1 μM, λex=360 nm) is listed as 465 nm. For the same compound, at Aβ1-42 oligomers [1] (1 μM, λex=360 nm, 20 mM Hepes pH 7.4, no Aβ), the “emission maximum (λmax) before Aβ oligomers” value came out at 535 nm. Moreover, the “change in light scattering (turbidity)” value on Aβ1-42 oligomers [2] is listed as “six-fold increase”. Further, the “incubation time resulting in formation of Aβ fibrils” value on Aβ1-42 oligomers [4] (natural fibrillation takes at least seven days) amounted to 25 min. For the same compound, the “increase in the rate of fibril formation” value on Aβ1-42 oligomers [4] (versus natural fibrillation) worked out at 400 fold.
With D-Arg-2′,6′-Dmt-Lys-Phe-NH2 [SS-31], in assay [3] (800 nM Aβ oligomers), the “reduction in Aβ1-42-mediated oxygenase activity compared to untreated controls” value stood at 90%. In addition, the “inhibition of Aβ1-42-mediated oxygenase activity compared to untreated controls” value in assay [3] (setting [5]) is “complete inhibition”. Moreover, in assay [3], the “inhibition of Cu2+-dependent stimulation of Aβ1-42-mediated oxygenase activity, dose dependence” value is recorded as “dose dependent”. In addition, on Aβ1-42 oligomers [2], the “change in light scattering (turbidity)” value is given as “no change in turbidity” and the light scattering entry is “about 180 RFUs”.

These data come from US20160375088A1, “CARDIOLIPIN-TARGETED PEPTIDES INHIBIT BETA-AMYLOID OLIGOMER TOXICITY” (priority 2013, published 2016).
